# Experimental data: publication PMC5111108, “An insecticide resistance-breaking mosquitocide targeting inward rectifier potassium channels in vectors of Zika virus and malaria” (Scientific Reports, 2016)
# “Also recorded” adds a separate entry of the source. Where two headings read alike, the source gives them in different places.
# Molecular target: T1, AnKir1 (Anopheles gambiae, UniProt A0A075M2J8)
# T1 sequence (A0A075M2J8 1-555): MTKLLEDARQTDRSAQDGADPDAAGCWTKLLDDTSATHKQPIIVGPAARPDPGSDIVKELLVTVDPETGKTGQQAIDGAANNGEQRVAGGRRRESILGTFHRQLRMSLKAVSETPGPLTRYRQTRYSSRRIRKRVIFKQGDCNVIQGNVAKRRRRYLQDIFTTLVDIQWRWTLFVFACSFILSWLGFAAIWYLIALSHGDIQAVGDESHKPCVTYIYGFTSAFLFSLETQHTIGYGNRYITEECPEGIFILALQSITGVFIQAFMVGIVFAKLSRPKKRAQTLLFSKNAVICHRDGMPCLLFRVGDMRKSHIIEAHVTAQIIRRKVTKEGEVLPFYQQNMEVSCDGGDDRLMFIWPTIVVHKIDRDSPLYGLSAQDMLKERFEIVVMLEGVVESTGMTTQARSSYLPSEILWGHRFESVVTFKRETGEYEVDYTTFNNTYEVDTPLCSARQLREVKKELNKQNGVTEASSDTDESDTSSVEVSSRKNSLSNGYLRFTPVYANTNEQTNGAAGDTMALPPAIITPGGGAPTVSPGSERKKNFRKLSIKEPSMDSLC
# Test: Tl+ flux assay in T-REx-HEK293 cells expressing AnKir1
# Assay type: cell-based
# Method: Tl^+ flux assays were performed essentially as described previously. Briefly, stably transfected T-Rex-HEK-293 cells expressing AnKir1 channels were cultured overnight in 384-well plates (20,000 cells/20 μL/well black-walled, clear-bottomed BD PureCoat amine-coated plates (BD, Bedford, MA) with a plating media containing DMEM, 10% dialyzed FBS and 1 μg/mL tetracycline. Approximately twenty-four hours after cell plating, the cell culture medium was replaced with a dye-loading solution containing assay buffer (Hanks Balanced Salt Solution with 20 mM HEPES, pH 7.3), 0.01% (w/v) Pluronic F-127 (Life Technologies, Carlsbad, CA), and 1.2 μM of the thallium-sensitive dye Thallos-AM (TEFlabs, Austin, TX). Following 1 hr incubation at room temperature, the dye-loading solution was washed from the plates and replaced with 20 μL/well of assay buffer.
# Tl+ flux assay development
# Tl+ flux assays were performed essentiall y as described previousl y (1). Briefl y, stabl y transfect ed T-Rex -HEK- 293- AnKir1 cells were cultured overnight in 384-well plates in media containing DMEM, 10% dial yz ed FBS and 1μg/ m L tetrac ycline to induce channel expression
# (Fig. S1A). The next day, the cell culture medium was replaced with a dye-loading solution containing assay buffer (Hanks Balanced Salt Solution with 20 mM HEPES, pH 7.3), 0.01% (w/v) Pluronic F-127 (Li fe Technologies, Carlsbad, CA), and 1.2 μM of the thallium-sensitive dye Thallos-AM (TEFl abs, Austin, TX). Following 1 hr incubation at room temperature, the d ye-loading solution was washed from the plates and replaced with 20 μ L/well of assa y buffer. The plates were transferred t o a Ham amatsu Functional Drug Screening System 6000 (FDSS6000; Hamamatsu, Tokyo, J apan) where 20 μ L/well of test compounds in assay buffer (as prepared below) were added and allowed to incubate with the cells for 20 min. After the incubation period, a baseline recordi ng was collected at 1 Hz for 10 s (excitation 470 ± 20 nm, emission 540 ± 30 nm) followed by a t hallium stimulus buffer addition (10 μL/well) and data collection for an additional 4 min. The Tl + stimulus buffer contains in (mM) 125 NaHCO3, 1.8 CaSO4, 1 MgSO4, 5 glucose, 12 Tl2SO4, 10 HEPES, pH 7.4. For Tl + flux assays on Kir2.x, Kir4.1 and Kir6.2/SUR1 ex pressing cells, the Tl+ stimulus buffer contained 1.8 mM Tl 2SO4. To ensure the small-molecule vehicle DMSO had no direct effect on An Ki r1-dependent Tl+ flux, the assa y’s tolerance to different doses of DMSO was evaluated (Fig. S1B). The robustness and reproducibility of the assay was determined by comparing Tl+ flux through tetracycline-induced and tetracycline-uninduced cells (Fig. S1C). The Z’ value was calculated as described previously (1 ), using the […]
# Z’ = 1- (3SD p + 3SD n)/ |meanp + meann | where SD is standard deviation, p and n are control and uninduced flux values respectivel y.
# To compare the effect of DMSO on An Kir1-mediated Tl+ flux, a one-way ANOVA was performed with a Tuke y’s multiple comparison test. Prism software (GraphPad Software) was used to generate CRC from Tl+ fl ux ..Half-inhibition concentration (IC50) values were calculated from fits using a four parameter logistic equation.
# High-throughput screeni ng
# The test compounds were transferred to daughter pol yprop ylene 384-well plates (G reiner Bio-One, Monroe, NC) using an Echo555 liquid handler (Labcyte, Sunnyvale, CA), and then diluted into assay buffer to generat e a 2X stock in 0.6% DMSO (0.3% final). For Tl+ flux assays on Kir6.2/SUR1 expressing cells, test compounds were diluted in assay buffer containing diazoxide (250 μM final) to induce channel activation. Concentration- response curves (CRCs) were gener ated b y screening compounds at 3-fold dilution series (1 nM - 30 μM).
# Tl+ flux data were anal yzed as previousl y d escri bed (2, 3) using a combination of Excel (Microsoft Corp, Redmond, WA) with XLfit add-in (IDBS, Guildford, Surre y, UK), Ori ginPro […]
# [1] = Tl+ flux, Tables S2/S3 and supplemental text, read-out: AnKir1 IC50
# [2] = Tl+ flux assay, read-out: AnKir1 IC50 (Tl+ flux)
SMILES,IC50 [1],further results
O=C(Cn1nc(C(F)(F)F)c2c1CCCC2)N1CCCC2CCCCC21 (stereo not shown) [Compound 9],6.7 µM,
CC1CC(C)CN(C(=O)Cn2nc(C(F)(F)F)c3c2CCCC3)C1 (stereo not shown) [Compound 13],4.5 µM,
O=C1CCCc2c1ccn2CC(=O)N1CCCc2ccccc21 [Compound 4],12.1 µM,
O=C(Cn1nc(C(F)(F)F)c2c1CCCC2)N1CCCC(c2ccccc2)C1 (stereo not shown) [Compound 12],5.6 µM,
O=C(Cn1nc(C(F)(F)F)c2c1CCCC2)NC1CCC1 [VU937],,"AnKir1 IC50 (Tl+ flux, Tables S2/S3 and supplemental text, listed as 18): not tolerated; also recorded: inactive; inhibition at 30 µM (at 30 μM, read-out: inhibition of AnKir1-mediated Tl+ flux): < 50%"
"O=C(Cn1nc(C(F)(F)F)c2c1CCCC2)N1CCCc2ccccc21 [VU041, 1-(3,4-dihydroquinolin-1(2H)-yl)-2-(3-(trifluoromethyl)-4,5,6,7-tetrahydro-1H-indazol-1-yl)ethan-1-one]",2.3 µM,"Hill-coefficient (Tl+ flux, AnKir1) (Tl+ flux CRC): 1.1; IC50 [2]: 2.5 µM"
O=C(Cn1ncc2c1CCOC2)N1CCCc2ccccc21 [VU730],,IC50 [2]: 2.4 µM
